Active and inactive are the calls of the source. The calls are words filed in the database; no cut-off is given here.
What was measured:
[1] = system: MeWo; test: Cytotoxicity against human MeWo cells at 1.6 to 100 ug/ml after 72 hrs by crystal violet assay; type: functional, cell-based
[2] = biological target: Methionine aminopeptidase (Staphylococcus aureus (strain COL), UniProt Q5HEN6); test: Inhibition of N-terminal poly-His-tagged Staphylococcus aureus COL MetAP expressed in Escherichia coli BL21(DE3) incubated for 30 mins before MGMM substrate addition by fluorescence assay; set-up: species or system Staphylococcus aureus subsp. aureus COL
Chain of Methionine aminopeptidase (Staphylococcus aureus (strain COL), UniProt Q5HEN6) (Q5HEN6 whole entry): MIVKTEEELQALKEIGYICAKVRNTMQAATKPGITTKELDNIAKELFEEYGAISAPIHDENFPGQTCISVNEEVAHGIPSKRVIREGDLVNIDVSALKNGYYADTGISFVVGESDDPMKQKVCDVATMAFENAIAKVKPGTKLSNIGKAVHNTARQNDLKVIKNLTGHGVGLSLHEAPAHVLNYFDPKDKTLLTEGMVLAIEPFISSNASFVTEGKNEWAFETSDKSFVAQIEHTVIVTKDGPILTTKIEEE

[3] = system: Ca-Ski; test: Cytotoxicity against human CaSki cells at 1.6 to 100 ug/ml after 72 hrs by crystal violet assay; type: functional, cell-based
[4] = system: HaCaT; test: Cytotoxicity against human HaCaT cells at 1.6 to 100 ug/ml after 72 hrs by crystal violet assay; type: cell-based
[5] = biological target: Methionine aminopeptidase 1 (Homo sapiens, UniProt P53582); test: Inhibition of N-terminal poly-His-tagged human MetAP-1 expressed in Escherichia coli BL21(DE3) incubated for 30 mins before MGMM substrate addition by fluorescence assay
[6] = system: Escherichia coli; test: Antimicrobial activity against Escherichia coli BL21(DE3) assessed as inhibition of bacterial growth at 200 uM incubated at 37 degC for 7 hrs; type: functional; conditions: for inhibition at 200 µM: BL21-DE3, 7 h
[7] = system: Calu-6; test: Cytotoxicity against human Calu6 cells at 1.6 to 100 ug/ml after 72 hrs by crystal violet assay; type: functional, cell-based
[8] = system: A-431; test: Cytotoxicity against human A431 cells at 1.6 to 100 ug/ml after 72 hrs by crystal violet assay; type: functional, cell-based
[9] = biological target: T1, Methionine aminopeptidase (Escherichia coli K-12, UniProt P0AE18); test: Inhibition of C-terminal poly-His-tagged Escherichia coli MetAP expressed in Escherichia coli BL21(DE3) incubated for 30 mins before MGMM substrate addition by fluorescence assay
T1 sequence (P0AE18 whole entry): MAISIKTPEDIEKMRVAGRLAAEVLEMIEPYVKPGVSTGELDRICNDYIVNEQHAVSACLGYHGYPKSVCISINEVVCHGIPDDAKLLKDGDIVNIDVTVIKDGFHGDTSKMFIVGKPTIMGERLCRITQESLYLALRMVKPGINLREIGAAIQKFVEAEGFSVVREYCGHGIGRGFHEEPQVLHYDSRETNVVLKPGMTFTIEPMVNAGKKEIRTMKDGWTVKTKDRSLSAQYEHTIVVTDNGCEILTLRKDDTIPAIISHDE

[10] = system: A 172; test: Cytotoxicity against human A172 cells at 1.6 to 100 ug/ml after 72 hrs by crystal violet assay; type: functional, cell-based
[11] = system: CAPAN-1; test: Cytotoxicity against human Capan1 cells at 1.6 to 100 ug/ml after 72 hrs by crystal violet assay; type: functional, cell-based
[12] = biological target: Methionine aminopeptidase 2 (Homo sapiens, UniProt P50579); conditions: sf9
Chain of Methionine aminopeptidase 2 (P50579 whole entry): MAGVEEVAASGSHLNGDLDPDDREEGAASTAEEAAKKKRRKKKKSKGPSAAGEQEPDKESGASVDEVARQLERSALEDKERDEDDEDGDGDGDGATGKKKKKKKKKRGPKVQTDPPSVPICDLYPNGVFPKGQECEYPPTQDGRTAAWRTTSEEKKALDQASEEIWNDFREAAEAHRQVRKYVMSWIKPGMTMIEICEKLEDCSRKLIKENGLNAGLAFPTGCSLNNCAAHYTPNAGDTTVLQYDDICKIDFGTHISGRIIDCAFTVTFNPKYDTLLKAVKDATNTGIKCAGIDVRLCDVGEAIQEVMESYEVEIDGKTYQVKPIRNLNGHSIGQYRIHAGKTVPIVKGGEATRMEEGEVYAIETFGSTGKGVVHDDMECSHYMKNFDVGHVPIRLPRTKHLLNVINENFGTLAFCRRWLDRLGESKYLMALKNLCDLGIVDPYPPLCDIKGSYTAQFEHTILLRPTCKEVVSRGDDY
Description: Inhibition of human MetAP-2 expressed in Sf9 cells incubated for 60 mins before MGMM substrate addition by fluorescence assay

[13] = Cytotoxicity against human Flow 2002 cells at 1.6 to 100 ug/ml after 72 hrs by crystal violet assay; type: cell-based; conditions: flow 2002, 72 h
[14] = system: SW707; test: Cytotoxicity against human SW707 cells at 1.6 to 100 ug/ml after 72 hrs by crystal violet assay; type: functional, cell-based
[15] = system: BT-474; test: Cytotoxicity against human BT474 cells at 1.6 to 100 ug/ml after 72 hrs by crystal violet assay; type: functional, cell-based
[16] = Half life assessed as decomposition into amines and unsaturated ketones at 250 uM in 50 mM Tris/maleate pH 7.5 buffer by HPLC method; type: physicochemical; conditions: Tris/maleate buffer, pH 7.5

Compound	Activity [1]	IC50 [2]	Activity [3]	Activity [4]	IC50 [5]	inhibition [6]	Activity [7]	Activity [8]	IC50 [9]	Activity [10]	Activity [11]	IC50 [12]	Activity [13]	Activity [14]	Activity [15]	IC50 ([9]; read-out: IC50)	IC50 ([2]; read-out: IC50)	inhibition at 200 µM [6]	half-life at 250 µM [16]
COc1ccc(C(=O)CCN(C)C)cc1.Cl	Active	Not Active	Active	Toxic	Not Active	inactive	Active	Active	Not Active	Active	Active	Not Active	Toxic	Active	Active				
CN(C)CCC(=O)c1ccccc1.Cl	Active	Not Active	Active	Toxic	Not Active	inactive	Active	Active	Not Active	Active	Active	Not Active	Toxic	Active	Active				
C=C1Cc2ccc(OC)cc2C1=O	Active		Active	Toxic			Active	Active		Active	Active	Not Active	Toxic	Active	Active	670 nM			
Cc1ccc2c(c1)C(=O)C(CN(C)C)C2.Cl (stereo unspecified)	Active		Active	Toxic			Active	Active		Active	Active	Not Active	Toxic	Active	Active	700 nM	15000 nM	45%	14 min
CN(C)CC1Cc2ccccc2C1=O.Cl (stereo unspecified)	Active		Active	Toxic			Active	Active		Active	Active	Not Active	Toxic	Active	Active	2800 nM	26000 nM	90%	10 min
C=C1Cc2cc(Br)ccc2C1=O	Active		Active	Toxic			Active	Active		Active	Active	Not Active	Toxic	Active	Active	190 nM		21%	
Cl.O=C1c2ccccc2CC1CN1CCCCC1 (stereo unspecified)	Active		Active	Toxic			Active	Active		Active	Active	Not Active	Toxic	Active	Active	3100 nM	25000 nM	50%	16 min
CN(C)CC1Cc2cc(Br)ccc2C1=O.Cl (stereo unspecified)	Active		Active	Toxic			Active	Active		Active	Active	Not Active	Toxic	Active	Active	720 nM	7800 nM	57%	6 min
C=C1Cc2ccc(C)cc2C1=O	Active		Active	Toxic			Active	Active		Active	Active	Not Active	Toxic	Active	Active	800 nM			
C=C1Cc2cc(C)ccc2C1=O	Active		Active	Toxic			Active	Active		Active	Active	Not Active	Toxic	Active	Active	400 nM	13300 nM	100%	
C=C1Cc2cc(OC)ccc2C1=O	Active		Active	Toxic			Active	Active		Active	Active	Not Active	Toxic	Active	Active	980 nM			
CN(C)CC1Cc2c(cccc2C(F)(F)F)C1=O.Cl (stereo unspecified)	Active		Active	Toxic			Active	Active		Active	Active	Not Active	Toxic	Active	Active	7000 nM	46000 nM	22%	1730 min
COc1ccc2c(c1)C(=O)C(CN(C)C)C2.Cl (stereo unspecified)	Active		Active	Toxic			Active	Active		Active	Active	Not Active	Toxic	Active	Active	830 nM	17000 nM	19%	12 min
Cc1ccc2c(c1)CC(CN(C)C)C2=O.Cl (stereo unspecified)	Active		Active	Toxic			Active	Active		Active	Active	Not Active	Toxic	Active	Active	1100 nM	32000 nM	100%	24 min
COc1ccc2c(c1)CC(CN(C)C)C2=O.Cl (stereo unspecified)	Active		Active	Toxic			Active	Active		Active	Active	Not Active	Toxic	Active	Active	2000 nM	42100 nM	35%	45 min
CN(C)CC1Cc2cc(Cl)ccc2C1=O.Cl (stereo unspecified)	Active		Active	Toxic			Active	Active		Active	Active	Not Active	Toxic	Active	Active	840 nM	7000 nM	71%	7 min
C=C1Cc2cc(Cl)ccc2C1=O	Active		Active	Toxic			Active	Active		Active	Active	Not Active	Toxic	Active	Active	230 nM		27%	

Source: ChEMBL document CHEMBL3351493, “Beta-aminoketones as prodrugs for selective irreversible inhibitors of type-1 methionine aminopeptidases” (Bioorg Med Chem Lett, 2014)
